# From patent US20200069691A1, “HETEROCYCLIC COMPOUNDS AS HIV PROTEASE INHIBITORS” (Merck Sharp & Dohme Corp., priority 2016, published 2020)
# Target: T1, wild-type HIV-1 protease (Human immunodeficiency virus type 1 group M subtype B, UniProt P04585)
# T1 construct: Escherichia coli expressed wild-type HIV-1 protease protein
# Assay: Assay for Inhibition of Microbial Expressed HIV Protease (peptide substrate cleavage, LC-MS/MS readout)
# Format: biochemical
# Settings: E. coli expressed wild-type HIV-1 protease, mean of at least two independent experiments, read-out: HIV Pr Enzyme HIV1 PR IC50
# Outline: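 Cleavage of Val-Ser-Gln-Asn-(β-naphthyl)Ala-Pro-Ile-Val (400 μM) by recombinant HIV-1 protease ([…]) ran 1 h at 30 °C after a 30 min room-temperature inhibitor preincubation in 50 mM sodium acetate pH 5.5. Product peak areas by LC-MS/MS gave inhibition; values average at least two independent runs.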
row,Structure (SMILES),IC50
1,"N=C1NC(c2ccccc2)(c2ccccc2)C(=O)N1Cc1ccc(Cl)c(C(=O)N2CCNC(=O)C2)c1 [Compound 380, 4-({2-chloro-5-[(2-imino-5-oxo-4,4-diphenylimidazolidin-1-yl)methyl]phenyl}carbonyl) piperazin-2-one]",11.2 nM
2,"COC(=O)N1CCN(C(=O)c2cc(CN3C(=N)NC(c4ccc(F)cc4)(c4ccc(F)cc4)C3=O)ccc2Cl)CC1 [Compound 381, methyl 4-[(5-{[4,4-bis(4-fluorophenyl)-2-imino-5-oxoimidazolidin-1-yl]methyl}-2-chlorophenyl)carbonyl] piperazine-1-carboxylate]",12.4 nM
3,"N=C1NC(c2ccc(F)cc2)(c2ccc(F)cc2)C(=O)N1Cc1ccc(F)c(C(=O)N2Cc3nccnc3C2)c1 [Compound 382, 3-[3-(5,7-dihydro-6H-pyrrolo[3,4-b]pyrazin-6-ylcarbonyl)-4-fluorobenzyl]-5,5-bis(4-fluorophenyl)-2-iminoimidazolidin-4-one]",13.1 nM
4,"N=C1NC(c2ccccc2)(c2ccccc2)C(=O)N1Cc1ccc(Cl)c(C(=O)N2CCC(n3c(=O)[nH]c4ccccc43)CC2)c1 [Compound 383, 1-[1-({2-chloro-5-[(2-imino-5-oxo-4,4-diphenylimidazolidin-1-yl)methyl]phenyl}carbonyl)piperidin-4-yl]-1,3-dihydro-2H-benzimidazol-2-one]",14.7 nM
5,"N#Cc1ncc2c(n1)CN(C(=O)c1cc(CN3C(=N)NC(c4ccccc4)(c4ccccc4)C3=O)ccc1F)C2 [Compound 384, 6-({2-fluoro-5-[(2-imino-5-oxo-4,4-diphenylimidazolidin-1-yl)methyl]phenyl}carbonyl)-6,7-dihydro-5H-pyrrolo[3,4-d]pyrimidine-2-carbonitrile]",21.6 nM
6,"N=C1NC(c2ccccc2)(c2ccccc2)C(=O)N1Cc1ccc(F)c(C(=O)N2Cc3cncnc3C2)c1 [Compound 385, 3-[3-(5,7-dihydro-6H-pyrrolo[3,4-d]pyrimidin-6-ylcarbonyl)-4-fluorobenzyl]-2-imino-5,5-diphenylimidazolidin-4-one]",25.8 nM
7,"N=C1NC(c2ccccc2)(c2ccccc2)C(=O)N1Cc1ccc(F)c(C(=O)N2Cc3cccnc3C2)c1 [Compound 386, 3-[3-(5,7-dihydro-6H-pyrrolo[3,4-b]pyridin-6-ylcarbonyl)-4-fluorobenzyl]-2-imino-5,5-diphenylimidazolidin-4-one]",28.2 nM
8,"COc1ccc(CN2C(=N)NC(c3ccccc3)(c3ccccc3)C2=O)cc1C(=O)N1Cc2cncnc2C1 [Compound 387, 3-[3-(5,7-dihydro-6H-pyrrolo[3,4-d]pyrimidin-6-ylcarbonyl)-4-methoxybenzyl]-2-imino-5,5-diphenylimidazolidin-4-one]",32.2 nM
9,"COc1ccc(CN2C(=N)NC(c3ccc(Cl)cc3)(c3ccc(Cl)cc3)C2=O)cc1C(=O)N1Cc2ccccc2C1 [Compound 388, 5,5-bis(4-chlorophenyl)-3-[3-(1,3-dihydro-2H-isoindol-2-ylcarbonyl)-4-methoxybenzyl]-2-iminoimidazolidin-4-one]",54.3 nM
10,"N=C1NC(c2ccc(F)cc2)(c2ccc(F)cc2)C(=O)N1Cc1ccc(Cl)c(C(=O)N2CCC(F)(F)C2)c1 [Compound 389, 3-{4-chloro-3-[(3,3-difluoropyrrolidin-1-yl)carbonyl]benzyl}-5,5-bis(4-fluorophenyl)-2-iminoimidazolidin-4-one]",98.5 nM
11,"CC(C)C[C@]1(c2ccccc2)NC(=N)N(Cc2cnc(C(F)(F)F)c(C(=O)N3Cc4nccnc4C3)c2)C1=O [Compound 390, (5R)-3-{[5-(5,7-dihydro-6H-pyrrolo[3,4-b]pyrazin-6-ylcarbonyl)-6-(trifluoromethyl)pyridin-3-yl]methyl}-2-imino-5-(2-methylpropyl)-5-phenylimidazolidin-4-one]",8.45 nM
12,"N=C1NC(c2ccc(F)cc2)(c2ccc(F)cc2)C(=O)N1Cc1cncc(C(=O)N2CCN(C(=O)OCCOCc3ccccc3)CC2)c1 [Compound 391, 2-(benzyloxy)ethyl 4-[(5-{[4,4-bis(4-fluorophenyl)-2-imino-5-oxoimidazolidin-1-yl]methyl}pyridin-3-yl)carbonyl]piperazine-1-carboxylate]",13.6 nM
